“Also recorded” adds a separate entry of the source. Counter-ions that a name gives are not always drawn. Like-named read-outs stand apart in the source and are kept apart here.
Experiments:
[1] = Approximate aqueous solubility by portion-wise addition of solid to water, visual inspection
Experimental: An attempt was made to measure the aqueous solubility of zotepine hydrochloride. To a 1-dram vial was charged 99 mg of zotepine hydrochloride, and 1 mL of HPLC-grade water (obtained from Mallinckrodt) was added.
A 0.5-mL aliquot of the resulting zotepine hydrochloride aqueous solution was then charged to a second 2-dram vial, and 50 mg of zotepine hydrochloride (50 mg) was added. […] At this point, the procedure was discontinued.

[2] = Intrinsic dissolution in water at 25° C. (Woods apparatus pellets, UV at 302 nm); type: physicochemical; details: for intrinsic dissolution rate: 50 RPM, 900 mL, mean of three pellets, equivalent hydrochloride salt concentration, not normalized for surface area
Experimental: Intrinsic Dissolution: Pellets of approximately 200 mg were pressed at 3000 lbs. for 1 minute in a standard Woods apparatus, with a surface area of 0.5 cm^2. Three pellets were tested for each material, testing one material at a time. The samples were rotated in a VanKel dissolution apparatus, with automated sampling, at 50 RPM in 900 mL of water at 25° C. Aliquots were taken every two minutes and not filtered prior to analysis. Concentrations were determined through UV absorbance at approximately 302 nm, to avoid potential interference from benzoic acid. Equivalent hydrochloride salt concentrations were calculated from the Beer's Law plot generated from zotepine hydrochloride salt aqueous standards.
To determine the rate of dissolution of each material, a plot was generated of the absorbance over time for each vessel. From this plot, a linear region was chosen from the initial dissolution period of each material: starting at the first time point when the measured absorbance exceeded the minimum measured absorbance value in the Beer's Law relationship generated from zotepine hydrochloride salt aqueous standards. The end of the linear region was chosen as either 30 minutes after the first time point, or at the maximum recorded absorbance value that falls within the Beer's Law Relationship. Equivalent hydrochloride salt concentrations were plotted versus time for the regions. A straight-line was fit to the data for each vessel. The slope of these lines provides the dissolution rate for each of the materials, expressed as [μg/mL]/min. The mean of the three rates is the reported rate for each material, expressed as equivalent hydrochloride salt concentration, for direct comparison of the materials. The rates were not normalized for the surface area of the pellet.

[3] = pharmaceutical formulations containing the zotepine free base; cited from earlier work
[4] = Equilibrium solubility in water, ambient-temperature slurry, UV measurement; type: physicochemical; details: for aqueous solubility (in words) / solid recovered from solubility experiment (XRPD analysis): water; for aqueous solubility (in words) / solid recovered from solubility experiment (XRPD analysis) / equilibrium solubility in water: ambient temperature; for equilibrium solubility in water: UV analysis of supernatant
Experimental: Equilibrium Solubility—UV Measurement: Equilibrium solubility was determined in water using ambient-temperature slurry experiments. Samples were prepared with excess solids and agitated on a wheel for at least 3 days. Remaining solids were separated from the mixture by centrifugation. The clear supernatant was pipeted to a separate container and the concentration determined through ultraviolet (UV) spectrophotometry, diluting the sample with additional water if necessary. […] Equivalent zotepine hydrochloride salt concentrations were calculated from the Beer's Law plot generated front zotepine hydrochloride salt aqueous standards and adjusted to account for the stoichiometry of the solids utilized. Retained solids were analyzed by X-ray powder diffraction, if sufficient solids were present. Concentrations of aqueous solutions of BNV-218 were determined through ultraviolet absorbance. Ultraviolet spectrophotometry: Solutions were analyzed using a Cary 50 dual-beam spectrophotometer. They were analyzed at ambient temperature in a 1.000-cm quartz cuvette. Scans at 600 nm/min in the range of 800-200 nm were performed to determine an optimal wavelength for concentration measurement. The cuvette was washed with methanol, followed by water, and the detector was then zeroed prior to analysis of each sample. Wavelength calibration was performed using holmium oxide. The photometric accuracy was verified by measuring the intensity of the light at the detector when filters of known optical density were placed in the path of the beam.

[5] = cited from earlier work
[6] = listed as crystalline zotepine hydrochloride, hydrochloride

Question: For `CN(C)CCOC1=Cc2ccccc2Sc2ccc(Cl)cc21.CN(C)CCOC1=Cc2ccccc2Sc2ccc(Cl)cc21.Cl.Cl.O=C(O)c1ccccc1` [2:1 zotepine hydrochloride benzoic acid cocrystal], which “approximate solubility / calculated aqueous concentration from amount of solid added” value ([1]; water, portion-wise addition of solid, ambient temperature) is on record?
Answer: ≥ 56 mg/mL

Question: What about the “dissolution rate in water (in words)” value [2] of the same compound?
Answer: intermediate between those of the 1:1 zotepine hydrochloride benzoic acid cocrystal and zotepine hydrochloride

Question: What about the “solid recovered after dissolution experiment (XRPD analysis)” value [2] of the same compound?
Answer: converts to the 2:1 zotepine hydrochloride benzoic acid cocrystal

Question: And the intrinsic dissolution rate [2]?
Answer: 2.3 [μg/mL]/min

Question: With `CN(C)CCOC1=Cc2ccccc2Sc2ccc(Cl)cc21` [zotepine free base, 2-[(8-chlorodibenzo[b,f]thiepin-10-yl)oxy]-N,N-dimethylethylamine, reference compound] as the compound, how does the “approximate solubility / calculated aqueous concentration from amount of solid added” value [1] read?
Answer: less than 4 mg/mL

Question: And the bioavailability [3]?
Answer: 7-13%

Question: What about the “dissolution rate in water (in words)” value [2] of the same compound?
Answer: too low to be calculated; also recorded: negligible; also recorded: very close to zero

Question: What about the “maximum UV absorbance in intrinsic dissolution experiment” value ([2]; 302 nm, experiment ended at 2,880 minutes) of the same compound?
Answer: 0.02

Question: What about the “largest recorded UV absorbance at end of equilibrium solubility experiment” value [4] of the same compound?
Answer: 0.02

Question: And the “aqueous solubility (in words)” value [4]?
Answer: negligible

Question: And the “solid recovered from solubility experiment (XRPD analysis)” value [4]?
Answer: zotepine free base

Question: What about the “solubility in water as reported” value [5] of the same compound?
Answer: relatively insoluble in water

Question: For `CN(C)CCOC1=Cc2ccccc2Sc2ccc(Cl)cc21.Cl.O=C(O)c1ccccc1` [1:1 zotepine hydrochloride benzoic acid cocrystal], which “surface activity (suds on addition of solid to water, visual inspection)” value ([1]; water) is on record?
Answer: exhibited surface activity

Question: What about the “dissolution rate in water (in words)” value [2] of the same compound?
Answer: intermediate between those of zotepine free base and zotepine hydrochloride

Question: What about the “solid recovered after dissolution experiment (XRPD analysis)” value [2] of the same compound?
Answer: the 1:1 zotepine hydrochloride benzoic acid cocrystal

Question: And the intrinsic dissolution rate [2]?
Answer: 0.3 [μg/mL]/min

Question: What about the “equilibrium solubility in water” value [4] of the same compound?
Answer: ~44 mg/mL

Question: And the “equilibrium solubility in water” value ([4]; listed as 1:1 benzoic acid cocrystal)?
Answer: approximately 44 mg/mL

Question: What about the “solid recovered from solubility experiment (XRPD analysis)” value [4] of the same compound?
Answer: 1:1 benzoic acid cocrystal

Question: For `CN(C)CCOC1=Cc2ccccc2Sc2ccc(Cl)cc21` [zotepine hydrochloride], which “surface activity (suds on addition of solid to water, visual inspection)” value [1] is on record?
Answer: high surface activity

Question: And the intrinsic dissolution rate ([2]; listed as zotepine hydrochloride salt, hydrochloride)?
Answer: 3.9 [μg/mL]/min

Question: And the “dissolution rate in water (in words)” value [2, 6]?
Answer: significantly higher

Question: What about the “aqueous solubility (in words)” value [4, 6] of the same compound?
Answer: significantly higher

Reference: US20110275695A1, “CRYSTALLINE FORMS OF ZOTEPINE HYDROCHLORIDE” (BIONEVIA PHARMACEUTICALS, INC., priority 2008, published 2011)
